Laboratory results as given in US6451786B1 (Cephalon, Inc., priority 1997, dated 2002).

Columns and labels:
[1] = target: T1, protein kinase C (UBI; mixed isozymes of a, b, g); experiment: Inhibition of protein kinase C activity (Multiscreen TCA in-plate assay); assay type: biochemical; conditions: read-out: PKC IC50
T1 construct: 1.5 ng protein kinase C (UBI)
Experimental: Assays were performed in 96-well Multiscreen-DP plates (Millipore). […] The reaction was allowed to proceed for 10 min at 37° C. […] The IC50 values were calculated by fitting the data to the sigmoidal dose-response (variable slope) equation in GraphPad Prism.

trkA = target: T2, trkA (Homo sapiens, UniProt P04629); assay type: cell-based; conditions: NIH3T3 cells; for inhibition at 0.001 µM: 1 nM compound, read-out: Inhibition Score 1 nM; for inhibition at 0.001 µM / inhibition at 0.01 µM / inhibition at 0.05 µM / inhibition at 0.1 µM: NGF 10 ng/ml, percent decrease in trk protein band; for inhibition at 0.01 µM: 10 nM compound, read-out: Inhibition Score 10 nM; for inhibition at 0.05 µM: 50 nM compound, read-out: Inhibition Score 50 nM; for inhibition at 0.1 µM: 100 nM compound, read-out: Inhibition Score 100 nM
T2 construct: expressed in transfected cells; host or cells: NIH3T3 cells
T2 sequence (P04629 33-796, species assumed): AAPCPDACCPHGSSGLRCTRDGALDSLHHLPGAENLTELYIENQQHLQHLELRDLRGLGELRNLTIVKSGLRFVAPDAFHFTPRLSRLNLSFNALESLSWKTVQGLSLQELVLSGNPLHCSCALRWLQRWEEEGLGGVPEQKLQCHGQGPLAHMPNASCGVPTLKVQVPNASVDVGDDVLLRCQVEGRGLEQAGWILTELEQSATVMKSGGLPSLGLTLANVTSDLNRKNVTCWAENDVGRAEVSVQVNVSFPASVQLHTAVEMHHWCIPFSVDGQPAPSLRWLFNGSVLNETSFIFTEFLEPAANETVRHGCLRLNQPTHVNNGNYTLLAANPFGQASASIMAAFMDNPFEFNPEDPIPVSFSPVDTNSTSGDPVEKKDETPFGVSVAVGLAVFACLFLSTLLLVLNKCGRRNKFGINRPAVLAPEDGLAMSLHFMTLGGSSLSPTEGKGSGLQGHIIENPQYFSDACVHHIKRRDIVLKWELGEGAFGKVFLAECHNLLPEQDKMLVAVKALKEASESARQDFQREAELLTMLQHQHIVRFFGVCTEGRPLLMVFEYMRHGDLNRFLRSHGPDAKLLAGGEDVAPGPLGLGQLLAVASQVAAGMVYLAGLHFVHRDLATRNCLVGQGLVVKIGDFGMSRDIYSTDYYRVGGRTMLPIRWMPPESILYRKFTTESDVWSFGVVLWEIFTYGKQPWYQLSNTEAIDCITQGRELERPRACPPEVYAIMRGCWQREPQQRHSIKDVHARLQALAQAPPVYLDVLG
Experimental: NIH3T3 cells transfected with trkA were grown in 100 mm dishes. […] NGF (Harlan/Bioproducts for Science) was then added to the cells at a concentration of 10 ng/ml for 5 minutes. Cells were lysed in buffer containing detergent and protease inhibitors. Clarified cell lysates were normalized to protein using BCA method and immunoprecipitated with anti-trk antibody.
The immune complexes were collected on Protein A Sepharose beads (Sigma), separated by SDS polyacrylamide gel electrophoresis (SDS-PAGE), and transferred to a polyvinylidene difluoride (PVDF) membrane. The membrane was immunoblotted with anti-phosphotyrosine antibody (UBI), followed by incubation with horseradish peroxidase coupled goat anti-mouse IgG (Bio-Rad).. Phosphorylated proteins were visualized using ECL (Amersham).
The area of the trk protein band was measured and compared to NGF-stimulated control.

[2] = tested on: dissociated rat embryonic spinal cord culture (ChAT activity); experiment: Enhancement of spinal cord ChAT activity in dissociated rat embryonic spinal cord culture; assay type: cell-based; conditions: ChAT measured after 2 days in vitro
Description: ChAT was employed a biochemical marker for functional cholinergic neurons. CHAT activity has been used to study the effects of neurotrophins (e.g., NGF or NT-3) on the survival and/or function of cholinergic neurons. The ChAT assay also has been used as an indication of the regulation of ChAT levels within cholinergic neurons. […] In these assays, a compound was directly added to a dissociated spinal cord culture. […] Neurochem.

[3] = target: T3, baculovirus-expressed human trkA cytoplasmic domain (Homo sapiens, UniProt P04629); experiment: Inhibition of trkA kinase activity (ELISA-based assay); assay type: biochemical; conditions: 40 μM ATP, read-out: trk IC50
T3 construct: baculovirus-expressed human trkA cytoplasmic domain; made in house; host or cells: baculovirus expression system (insect cells)
T3 sequence (P04629 440-796 limits assumed): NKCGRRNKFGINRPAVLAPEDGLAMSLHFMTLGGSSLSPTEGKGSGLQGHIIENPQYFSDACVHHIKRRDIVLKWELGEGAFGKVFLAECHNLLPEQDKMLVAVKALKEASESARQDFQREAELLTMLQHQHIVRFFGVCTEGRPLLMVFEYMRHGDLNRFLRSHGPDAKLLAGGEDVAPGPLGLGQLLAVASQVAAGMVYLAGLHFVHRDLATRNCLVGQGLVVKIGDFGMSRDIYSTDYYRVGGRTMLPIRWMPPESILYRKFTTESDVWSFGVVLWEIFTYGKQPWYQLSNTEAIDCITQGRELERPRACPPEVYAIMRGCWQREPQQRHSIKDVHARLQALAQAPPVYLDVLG
Experimental: An antibody to phosphotyrosine (UBI) was then added, followed by a secondary enzyme-conjugated antibody, alkaline phosphatase-labelled goat anti-mouse IgG (Bio-Rad). The activity of the bound enzyme was measured using an amplified detection system (Gibco-BRL). Inhibition data were analyzed using the sigmoidal dose-response (variable slope) equation in GraphPad Prism.

[4] = tested on: rat spinal cord motoneurons; experiment: Survival assay using rat spinal cord motoneurons (calcein AM viability); assay type: cell-based; conditions: cultures enriched for motoneurons, survival assessed after 4 days (FIG. 8)
Experimental: Spinal cords were dissected from Sprague-Dawley rat fetuses (Charles River Laboratories, Wilmington, Mass.) of embryonic age (E) 14.5-15. Cells from only the ventral portion of the spinal cord were dissociated, and further enriched for motoneurons by centrifugation on a 6.5% step metrizamide gradient, and were analyzed for purity by staining with low affinity neurotrophin receptor antibody (IgG-192, Boehringer-Mannheim). Cells were seeded onto 96-well plates previously coated with poly-1-ornithine and laminin (5 ug/ml each) at a density of 6×10^4 cells/cm^2 in chemically defined serum-free N2 medium (Bottenstein and Sato, 1979). To distinguish attachment from survival effects, 3,9-bis[(ethylthio)methyl]-K-252a (Kaneko et. al., J. Med. Chem 40:1863-1869, 1997) was added to cultures after an initial attachment period of 1-3 hours.
Neuronal survival was assessed after 4 days by calcein AM (Molecular Probes, Eugene, Oreg.) in a fluorimetric viability assay (Bozyczko-Coyne et. al., J. Neurosci. Meth. 50:205-216, 1993). […] The fluorescent signal was read using a plate-reading fluorimeter (Cytofluor 2350) (excitation=485 nm; emission=538 nm). […] Linearity of the fluorescence signal was verified for the concentration and incubation time for the range of cell densities. Microscopic counts of neurons correlated directly with relative fluorescence values.

Row | Structure (SMILES) | IC50 [1] [nM] | inhibition at 0.001 µM (trkA) [%] | inhibition at 0.01 µM (trkA) [%] | inhibition at 0.05 µM (trkA) [%] | inhibition at 0.1 µM (trkA) [%] | IC50 [3] [nM] | Spinal Cord ChAT % control, Activity at 50 nM [2] [% control] | Spinal Cord ChAT % control, Maximal Activity [2] [% control] | also measured
1 | C[C@]12OC(C[C@@]1(O)CO)n1c3ccccc3c3c4c(c5c6ccccc6n2c5c31)CNC4=O [Compound VII] | 79 | 1 to 25 | 26 to 49 | 76 to 100 | 76 to 100 | – | <120 | – | –
2 | C[C@]12OC(C[C@H]1CO)n1c3ccccc3c3c4c(c5c6ccccc6n2c5c31)CNC4=O [Compound VI] | 95 | – | – | – | – | 2 | <120 | 125 | –
3 | COC(=O)[C@]1(O)CC2O[C@]1(C)n1c3ccccc3c3c4c(c5c6ccccc6n2c5c31)C(=O)NC4 [Compound XIV, 3′-(R)-K-252a] | – | – | – | – | – | – | 147 | 195 | –
4 | C[C@]12OC(C[C@@]1(O)C(=O)O)n1c3ccccc3c3c4c(c5c6ccccc6n2c5c31)CNC4=O [Compound XVI] | – | – | – | – | – | – | – | – | survival of spinal cord motoneurons [4]: significantly enhanced survival
5 | C[C@@]1(O)C[C@H]2O[C@]1(C)n1c3ccccc3c3c4c(c5c6ccccc6n2c5c31)C(=O)NC4 [Compound XXIX, reference compound] | – | – | – | – | – | 7 | – | – | –

Second part, led by results:

Row | IC50 [1] [nM] | inhibition at 0.001 µM (trkA) [%] | inhibition at 0.01 µM (trkA) [%] | inhibition at 0.05 µM (trkA) [%] | inhibition at 0.1 µM (trkA) [%] | IC50 [3] [nM] | Structure (SMILES) | Spinal Cord ChAT % control, Activity at 50 nM [2] [% control] | Spinal Cord ChAT % control, Maximal Activity [2] [% control] | also measured
6 | – | – | – | – | – | 21 | C[C@]12OC(C[C@@]1(O)C(N)=O)n1c3ccccc3c3c4c(c5c6ccccc6n2c5c31)CNC4=O [Compound XV] | – | 129 | –
7 | > 1000 | – | – | – | – | 4 | C[C@@]12C=C[C@@H](O1)n1c3ccccc3c3c4c(c5c6ccccc6n2c5c31)CNC4=O [Compound XXIII] | – | – | –
8 | 310 | 26 to 49 | 50 to 75 | 50 to 75 | 50 to 75 | – | C[C@@]1(O)CC2O[C@]1(C)n1c3ccccc3c3c4c(c5c6ccccc6n2c5c31)C(=O)NC4 [Compound XXIX, reference compound] | – | – | complete inhibition of trkA at 100 nM (trkA; 100 nM): did not show complete inhibition
9 | > 1000 | 26 to 49 | 50 to 75 | 76 to 100 | 76 to 100 | 2 | C[C@]1(O)CC2O[C@]1(C)n1c3ccccc3c3c4c(c5c6ccccc6n2c5c31)C(=O)NC4 [Compound X] | <120 | 127 | concentration giving complete inhibition of trkA (trkA): < 50 nM; IC50 (trkA; NGF-stimulated, read-out: IC50 for inhibiting trk in a whole cell preparation): < 10 nM
